Results as given in patent publication US20140134197A1, “Mimotopic Peptides for the Diagnosis and Treatment of Multiple sclerosis” (priority 2011, published 2014).
Counter-ions that a name gives are not always drawn. Ends that are not written are not given here.

Experiment: not given
Conditions: Tables 3a-3e; from cited literature; CD4 T-helper cells; cited from earlier work
For `Fc1ccc([C@@H]2CCNC[C@H]2COc2ccc3c(c2)OCO3)cc1` [Paroxetine], the “Immunosuppressive Effects” value is listed as “Decreases CD4 T-Helper Cells”.

Same assay, conditions: Tables 3a-3e; from cited literature; cited from earlier work
For `Cc1nnc2n1-c1ccc(Cl)cc1C(c1ccccc1)=NC2` [Alprazolam], the “Immunosuppressive Effects” value is listed as “Inhibits proliferative responses”. In the case of `CC(C)c1c(C(=O)Nc2ccccc2)c(-c2ccccc2)c(-c2ccc(F)cc2)n1CC[C@@H](O)C[C@@H](O)CC(=O)O` [Atorvastatin], the “Immunosuppressive Effects” value is listed as “Increases in IL-10 Production”. For `CN1C(=O)CN=C(c2ccccc2)c2cc(Cl)ccc21` [Diazepam], the “Immunosuppressive Effects” value is given as “Markedly Suppresses Antigen-”. For `O=C1NC(=O)C(c2ccccc2)(c2ccccc2)N1` [Dilantin, Phenytoin sodium], the “Immunosuppressive Effects” value is given as “Humoral Immune Suppressant”. For `CNCCC(Oc1ccc(C(F)(F)F)cc1)c1ccccc1` (stereo not drawn) [Fluoxethine], the “Immunosuppressive Effects” value is given as “Decreases T Lymphocyte”. In the case of `N[C@@H](Cc1cc(I)c(Oc2cc(I)c(O)c(I)c2)c(I)c1)C(=O)O` [Levoxyl, Levothyroxine], the “Immunosuppressive Effects” value is listed as “Inhibits Cytokine”. For `Nc1ccc(O)c(C(=O)O)c1` [Mesalazine], the “Immunosuppressive Effects” value is given as “Potent and Specific Inhibitor”. In the case of `CC(C)c1nc(N(C)S(C)(=O)=O)nc(-c2ccc(F)cc2)c1/C=C/[C@@H](O)C[C@@H](O)CC(=O)O` [Rosuvastatin], the “Immunosuppressive Effects” value is given as “Post-Transcriptional Level”. For `COc1ccc(C(CN(C)C)C2(O)CCCCC2)cc1` (stereo not drawn) [Venlafaxine], the “Immunosuppressive Effects” value is listed as “Suppresses pro-Inflammatory”. For `NS(=O)(=O)Cc1noc2ccccc12` [Zonisamide], the “Immunosuppressive Effects” value is listed as “Suppression of IFN-gamma”.

Same assay, conditions: Tables 3a-3e; from cited literature; hydrochloride; antigen-specific TH1 responses; cited from earlier work
In the case of `CN[C@H]1CC[C@@H](c2ccc(Cl)c(Cl)c2)c2ccccc21` [Sertraline hydrochloride], the “Immunosuppressive Effects” value is given as “Suppression of Antigen-”.

Same assay, conditions: Tables 3a-3e; from cited literature; splenocyte viability; cited from earlier work
In the case of `Fc1ccc([C@@H]2CCNC[C@H]2COc2ccc3c(c2)OCO3)cc1` [Paroxetine], the “Immunosuppressive Effects” value is listed as “Inhibit Splenocyte Viability”.

Experiment: Solubility / hydrophilicity of mimotopic peptides, free or with amino-ADOOA-ADOOA linker
Format: physicochemical
Conditions: not given
Excerpt: Dimeric IgE complexing hinges upon disruption of the overhanging oligodendrocyte membrane surface and facilitated intracellular autoantibody inflow. […] Table 4a lists structurally unique, mimotopic, peptides serving as diagnostic and therapeutic antigens. […] Peptides used for initial diagnosis can be of maximum, unique length (column 3) or can be fractionated into pentameric, single epitope equivalents (column 5). […] The amide group is used for covalent Coupling to microplate wells. The 3,6-dioxaoctanoic acid2 construct, being very hydrophilic, solubilizes most al peptides, especially those that are relatively hydrophobic. The listed myelin, dimer-cornerstone peptide homologues (bold-highlighted) for MS therapy are useful because of their in-vivo: (a) net hydrophilicity for adequate solubility; […] The linker provides both increased hydrophilicity for enhanced solubility and serves as a point of attachment onto microtiter test plate wells. The peptide […] NO: 3) is an example of a soluble short peptide that is comprised of a singularly unique MOG surface pentamer, […]
For DHSYQE [DHSYQE], the “solubility of short therapeutic peptide” value was “soluble”. In the case of DNEVFGEA, the “hydrophilicity / solubilization when coupled with amino-ADOOA-ADOOA linker” value (from here on “hydrophilicity / solubilization”) is reported as “sufficiently hydrophilic”. With DNTFKD [DNTFKD] the “hydrophilicity / solubilization” value was “sufficiently hydrophilic”. In the case of HGRTQ [HGRTQ], the “hydrophilicity / solubilization” value is reported as “solubilize readily”. With KDSHHPA [Lys Asp Ser His His Pro Ala] the “hydrophilicity / solubilization” value was “solubilize readily”. With LQTIQE [LQTIQE] the “hydrophilicity / solubilization” value was “sufficiently hydrophilic”. With “Lys Gly Thr Gln Phe (KGTQF; listed as Homo sapiens) [KTGQF]” the aggregation tendency was “dual molecule aggregate-forming tendencies”. In the case of NLHRTFE [Asn Leu His Arg Thr Phe Glu], the “hydrophilicity / solubilization” value is reported as “sufficiently hydrophilic”. With PKNAW [PKNAW] the “hydrophilicity / solubilization” value was “sufficiently hydrophilic”. With QDTAVT [QDTAVT] the “hydrophilicity / solubilization” value was “sufficiently hydrophilic”. With YKDSHHPA the “hydrophilicity / solubilization” value was “solubilize readily”.
